Data published in US9446039B2, “Aminoheteroaryl compounds as MTH1 inhibitors” (CEMM—FORSCHUNGSZENTRUM FÜR MOLEKULARE MEDIZIN GMBH, priority 2012, dated 2016).

Experiments:
Type in all cases: binding
[1] = molecular target: T1, SW480 colon carcinoma cells lysate proteins (Homo sapiens, UniProt Q16181); details: PreyGene 07-Sep
T1 sequence (Q16181 1-437): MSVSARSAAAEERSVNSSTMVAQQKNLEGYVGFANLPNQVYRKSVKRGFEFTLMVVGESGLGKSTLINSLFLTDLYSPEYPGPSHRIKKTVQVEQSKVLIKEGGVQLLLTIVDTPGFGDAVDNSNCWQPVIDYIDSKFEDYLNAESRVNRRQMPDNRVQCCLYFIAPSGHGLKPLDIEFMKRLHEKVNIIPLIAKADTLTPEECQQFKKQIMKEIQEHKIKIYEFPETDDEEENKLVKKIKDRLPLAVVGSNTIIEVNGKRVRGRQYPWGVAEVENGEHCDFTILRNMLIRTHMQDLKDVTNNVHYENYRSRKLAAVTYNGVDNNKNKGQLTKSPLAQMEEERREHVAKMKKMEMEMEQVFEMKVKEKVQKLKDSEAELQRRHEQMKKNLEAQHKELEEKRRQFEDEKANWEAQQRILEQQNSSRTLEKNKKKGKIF

[2] = molecular target: SW480 colon carcinoma cells lysate proteins (Homo sapiens, UniProt Q9Y262); details: PreyGene EIF3L; SW480 cells
Sequence of SW480 colon carcinoma cells lysate proteins (Homo sapiens, UniProt Q9Y262) (Q9Y262 whole entry): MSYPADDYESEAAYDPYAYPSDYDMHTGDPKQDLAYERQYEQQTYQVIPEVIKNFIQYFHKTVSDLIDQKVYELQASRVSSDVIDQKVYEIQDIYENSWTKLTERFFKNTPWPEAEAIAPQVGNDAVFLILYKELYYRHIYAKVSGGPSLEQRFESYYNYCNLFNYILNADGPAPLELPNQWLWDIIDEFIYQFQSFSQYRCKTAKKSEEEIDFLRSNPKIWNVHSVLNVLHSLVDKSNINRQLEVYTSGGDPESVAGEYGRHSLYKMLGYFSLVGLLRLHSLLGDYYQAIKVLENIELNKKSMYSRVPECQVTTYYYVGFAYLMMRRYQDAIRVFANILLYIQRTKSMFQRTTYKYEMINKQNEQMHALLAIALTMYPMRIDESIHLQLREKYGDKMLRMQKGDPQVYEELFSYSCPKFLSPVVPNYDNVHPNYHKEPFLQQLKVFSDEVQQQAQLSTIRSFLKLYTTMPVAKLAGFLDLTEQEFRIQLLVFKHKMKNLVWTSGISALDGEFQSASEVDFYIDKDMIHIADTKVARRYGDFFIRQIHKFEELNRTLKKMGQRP

[3] = molecular target: T2, SW480 colon carcinoma cells lysate proteins (Homo sapiens, UniProt Q9NSD9); details: PreyGene FARSB
T2 sequence (Q9NSD9 1-589): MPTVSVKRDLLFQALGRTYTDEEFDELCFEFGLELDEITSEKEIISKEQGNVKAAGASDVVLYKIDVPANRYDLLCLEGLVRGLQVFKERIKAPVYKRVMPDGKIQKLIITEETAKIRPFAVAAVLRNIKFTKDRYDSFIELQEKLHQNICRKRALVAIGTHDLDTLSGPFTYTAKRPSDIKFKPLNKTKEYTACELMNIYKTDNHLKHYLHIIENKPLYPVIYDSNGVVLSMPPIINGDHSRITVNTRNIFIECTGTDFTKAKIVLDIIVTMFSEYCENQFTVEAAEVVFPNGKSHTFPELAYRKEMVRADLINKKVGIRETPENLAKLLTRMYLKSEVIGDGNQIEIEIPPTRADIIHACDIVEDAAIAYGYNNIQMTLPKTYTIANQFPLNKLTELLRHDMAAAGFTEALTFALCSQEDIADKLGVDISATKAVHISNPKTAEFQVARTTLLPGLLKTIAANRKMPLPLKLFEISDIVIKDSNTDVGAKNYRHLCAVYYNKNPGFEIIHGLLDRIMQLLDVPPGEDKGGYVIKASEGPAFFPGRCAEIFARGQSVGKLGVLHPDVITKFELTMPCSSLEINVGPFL

[4] = molecular target: T3, SW480 colon carcinoma cells lysate proteins (Homo sapiens, UniProt Q9Y383); details: PreyGene LUC7L2
T3 sequence (Q9Y383 1-392): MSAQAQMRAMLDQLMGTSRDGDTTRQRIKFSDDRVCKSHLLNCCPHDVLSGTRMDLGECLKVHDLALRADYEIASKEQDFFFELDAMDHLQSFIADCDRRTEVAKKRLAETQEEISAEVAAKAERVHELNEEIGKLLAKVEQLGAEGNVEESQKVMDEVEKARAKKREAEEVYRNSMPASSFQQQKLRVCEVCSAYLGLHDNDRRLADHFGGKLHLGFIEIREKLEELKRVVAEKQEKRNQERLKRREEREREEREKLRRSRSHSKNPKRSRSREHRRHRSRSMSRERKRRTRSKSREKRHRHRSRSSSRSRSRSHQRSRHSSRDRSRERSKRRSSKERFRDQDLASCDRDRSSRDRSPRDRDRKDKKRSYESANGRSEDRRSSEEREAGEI

[5] = molecular target: T4, SW480 colon carcinoma cells lysate proteins (Homo sapiens, UniProt P37837); details: PreyGene TALDO1
T4 sequence (P37837 1-337): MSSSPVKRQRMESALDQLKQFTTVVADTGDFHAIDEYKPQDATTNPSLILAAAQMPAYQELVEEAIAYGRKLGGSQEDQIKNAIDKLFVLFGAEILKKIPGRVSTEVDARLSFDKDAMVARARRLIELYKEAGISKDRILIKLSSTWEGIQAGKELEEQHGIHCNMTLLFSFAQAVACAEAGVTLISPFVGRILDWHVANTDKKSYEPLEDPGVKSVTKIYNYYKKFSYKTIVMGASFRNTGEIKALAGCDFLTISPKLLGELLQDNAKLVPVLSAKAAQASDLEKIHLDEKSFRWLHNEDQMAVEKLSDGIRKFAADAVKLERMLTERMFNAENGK

[6] = molecular target: SW480 colon carcinoma cells lysate proteins (Homo sapiens, UniProt Q562R1); details: PreyGene ACTBL2; SW480 cells
Sequence of SW480 colon carcinoma cells lysate proteins (Homo sapiens, UniProt Q562R1) (Q562R1 whole entry): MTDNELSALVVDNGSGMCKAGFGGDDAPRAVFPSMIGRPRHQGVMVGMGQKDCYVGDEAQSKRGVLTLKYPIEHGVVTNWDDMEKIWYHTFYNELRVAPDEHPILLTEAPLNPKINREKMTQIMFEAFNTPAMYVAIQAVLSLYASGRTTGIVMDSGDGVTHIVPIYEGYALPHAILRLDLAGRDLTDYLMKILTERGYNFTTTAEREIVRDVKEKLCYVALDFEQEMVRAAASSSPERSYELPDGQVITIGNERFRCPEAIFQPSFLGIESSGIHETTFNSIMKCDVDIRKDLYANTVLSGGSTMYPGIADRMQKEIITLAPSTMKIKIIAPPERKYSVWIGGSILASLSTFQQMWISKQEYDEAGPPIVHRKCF

[7] = molecular target: SW480 colon carcinoma cells lysate proteins (Homo sapiens, UniProt P62826); details: PreyGene RAN
[8] = molecular target: SW480 colon carcinoma cells lysate proteins (Homo sapiens, UniProt Q9BZK3); details: PreyGene NACAP1; SW480 cells

Compound: C[C@H](Oc1cc(-c2cnn(C3CCNCC3)c2)cnc1N)c1c(Cl)ccc(F)c1Cl [(5)-crizotinib]
- AvgP [1]: 0.2962
- SC.Exp. 1-1 [1]: 3
- SC.Exp. 1-2 [1]: 3
- SC.Exp. 2-1 [1]: 0
- SC.Exp. 2-2 [1]: 0
- Sum (SC.Exp.) [1]: 6
- AvgP [2]: 0
- SC.Exp. 1-1 [2]: 9
- SC.Exp. 1-2 [2]: 7
- SC.Exp. 2-1 [2]: 6
- SC.Exp. 2-2 [2]: 4
- SC.Exp. Sum [2]: 26
- AvgP [3]: 0.3413
- SC.Exp. 1-1 [3]: 3
- SC.Exp. 1-2 [3]: 2
- SC.Exp. 2-1 [3]: 0
- SC.Exp. 2-2 [3]: 0
- Sum (SC.Exp.) [3]: 5
- AvgP [4]: 0.3775
- SC.Exp. 1-1 [4]: 3
- SC.Exp. 1-2 [4]: 3
- SC.Exp. 2-1 [4]: 0
- SC.Exp. 2-2 [4]: 0
- Sum (SC.Exp.) [4]: 6
- AvgP [5]: 0.3739
- SC.Exp. 1-1 [5]: 2
- SC.Exp. 1-2 [5]: 2
- SC.Exp. 2-1 [5]: 0
- SC.Exp. 2-2 [5]: 0
- Sum (SC.Exp.) [5]: 4
- AvgP [6]: 0
- SC.Exp. 1-1 [6]: 1
- SC.Exp. 1-2 [6]: 1
- SC.Exp. 2-1 [6]: 0
- SC.Exp. 2-2 [6]: 0
- SC.Exp. Sum [6]: 2
- AvgP [7]: 0.3036
- SC.Exp. 1-1 [7]: 5
- SC.Exp. 1-2 [7]: 6
- SC.Exp. 2-1 [7]: 0
- SC.Exp. 2-2 [7]: 0
- Sum (SC.Exp.) [7]: 11
- AvgP [8]: 0
- SC.Exp. 1-1 [8]: 0
- SC.Exp. 1-2 [8]: 0
- SC.Exp. 2-1 [8]: 1
- SC.Exp. 2-2 [8]: 0
- SC.Exp. Sum [8]: 1
